In US20240248100A1, “SEPTAPEPTIDES ASSOCIATED WITH NEURODEGENERACY” (SEPTA THERAPEUTICS, INC., priority 2018, published 2024):
“Also recorded” adds a separate entry of the source.

Key:
THP-1 cells = assay: Ca+2 mobilization (Indo-1AM fluorescence) and desensitization in THP-1 monocytic cells; format: cell-based; details: for Ca^+2 flux: peptide alone; for DESENSITIZATION: desensitization of subsequent Ca+2 mobilization by MCP-1 or heterologous septapeptide
Text: Alternately, chemokine activity can be measured more quantitatively using Ca^+2 mobilization. Chemokines including MCP-1, -2 and -3 bind to several transmembrane, G-protein-linked receptors on the surface of monocytes, macrophages and microglia. Ligand binding induces signal transduction through the receptor-associated heterotrimeric G-proteins, leading to the generation of free Ca^+2 in the cytoplasm of chemokine-stimulated cells. The Ca^+2 rise is transient, and can be measured using a spectrofluorimeter. (The Cytokine Handbook) A typical readout is represented in FIG. 3, showing a positive Ca^+2 mobilization response to MCP-1 in THP-1 cells. THP-1 monocytic cells were loaded with the Ca^+2 indicator dye Indo-1AM and their cytoplasmic Ca^+2 content was measured during laser excitation. As Ca^+2 increases in the cytoplasm, the relative fluorescence intensity (RFI) of the dye increases in real time, exciting the detectors in the spectrofluorimeter. For example, after MCP-1 challenge of THP-1 cells, the RFI increases rapidly, and returns to baseline after about 60 seconds, as exemplified by the “spike” in the trace in FIG. 3 (the smaller peak before the large spike is an artifact generated by the introduction of the sample). Because the heterotrimeric G-proteins involved in the generation of the Ca^+2 signal are both rapidly dissociated and deactivated by phosphorylation, the increase in cytoplasmic Ca^+2 after ligand engagement can be desensitized. Therefore, challenging the cells a second time with MCP-1 would not result in a second spike, nor would a Ca^+2 spike result from subsequent challenge by another ligand which engages the same MCP-1 receptor
Some of the bacterial septapeptide MRHAS's (Sigma) were tested for their ability to increase cytoplasmic Ca^+2, and to desensitize subsequent Ca^+2 mobilization by MCP-1 and heterologous septapeptides. […] These included QQTAPKA (SEQ ID NO: 12) of L.monocytogenes (Figure. 4) and QVQNNKP (SEQ ID NO: 13) from H.influenzae type b (FIG. 5).

RG progenitor cells = assay: Maturation (mitogenic-like) activity on rat glial (RG) progenitor cell monolayers, scored visually; format: cell-based; details: 72 hours, above untreated baseline
Method: Since no appropriate CNS-derived cells are available for the detection of Ca^+2 mobilization, a continuous cell line of glial stem cells was established in culture in order to detect mitogenic-like effects scored upon visual examination. Glial cells from normal brain following kainic acid-induced lesions were established in continuous cell culture as previously described by Singh VK and Van Alstyne D., Brain Res (1978) 155:418-421.) Briefly, 1 ul of a solution of kainic acid monohydrate (Sigma), containing 5 nmole kainic acid in 0.9% saline, was injected into rat striatum under anaesthesia. Rats were anaesthetized and decapitated 5 days following injection and the brains were harvested immediately and placed in a sterile glass culture dish. The striatum from the injection site was dissected, placed in MEM (Gibco) containing 0.2% glucose, 10% fetal calf serum, 5 units/ml penicillin, 5 ug/ml streptomycin and then further minced using a sterile scalpel. The culture dish was then incubated at 37° C. in a humidified atmosphere containing 5% CO2. Each day for the first 3-4 days, the unattached tissue fragments were removed, washed once in fresh medium and returned to the culture dish until a complete monolayer was formed. The resulting monolayers were then subcultured every 5-6 days after trypsinization. The monolayers were treated with 0.25% trypsin (Gibco) for 5 minutes at 22° C. The cells were collected by low speed centrifugation, washed twice with complete growth medium, counted and replated in glass culture dishes. Once the cell line was established in glass dishes, the cells were then adapted and transferred to plastic culture dishes.
The mitogenic effect of diBcAMP on RG monolayers is shown in FIGS. 7A (untreated) and 7B (treated) cells after 24 hours. […] Mature cells were characterized using ThermoFisher Scientific CD11b and GFAP (Glial Fibrillary Acidic Protein) monoclonal antibodies AlexaFluor commonly used to detect microglial- and astrocyte-specific markers respectively. (Tran, E., et al. J. Neuroimmunology 74 (1997) 121-129). FIGS. 8A-8D show identical cells under brightfield illumination, with positive staining for microglial and astrocyte markers (CD11b and GFAP markers respectively. The identification of the majority of these cells as microglia, a subset of astrocytes, is significant since an overabundance of microglia has been associated with the development of AD (Weizmann Institute of Science, “The brain's rejuvenating cells,” Science Daily, 9 June, 2017:sciencedaily.com/release/2017/06/170609135903).
Peptides derived from amyloid beta and synthesized by Kinexus Inc. (Vancouver, Canada) were tested for their effects on RG cell cultures, according to the method of Yankner BR, et al., Science (1990) 250:279-282. Since septapeptides may be too small or unstable to form avid bonds with cell surface receptors, the 7 mer was bracketed within a slightly longer 10-mer construct, in order to maximize stability during the incubation procedure. A randomized sequence was used as a negative control.
These peptides were dissolved in DMSO (dimethyl sulfoxide) to maintain stability. This solvent slightly altered the shape of some cells at lower dilutions of peptide, giving a high background. Therefore, to avoid any interference with the results, RG cells were incubated in the presence of peptide concentrations ranging from […] to 10^-7 M for 72 hours. Positive cells were counted and data are presented as the number greater than the baseline number of maximal mature glia in untreated control cultures achieved by day 3, taken to be zero. Results are shown in Table 3 and photos of transformed cells are contained in FIGS. 9A and 9B.

RG cells = details: 1 mM dB-cAMP; cited from earlier work

## MCP-1: human Monocyte Chemoattractant Protein 1, chemokine, positive control
THP-1 cells
  Ca^+2 flux: positive
THP-1 cells; listed as hMCP-1
  Ca^+2 flux: positive Ca^+2 responses

## QQQPPKA [S. pneumoniae-derived MRHAS septapeptide]
THP-1 cells
  DESENSITIZATION: blocks activation by the Listeria-derived MRHAS; also recorded: positive for QQTAPKA
  Ca^+2 flux: negative; also recorded: did not induce a Ca^+2 signal

## ^1DAEFRHDSGYEVHHQKLVF^19 [Peptide #1]
RG progenitor cells; peptide 10^−6 M (1 uM)
  Maturation activity, % conversion: 63%
RG progenitor cells; peptide 10^−7 M (100 nM)
  Maturation activity, % conversion: 41%

## CCCC(=O)Nc1ncnc2c1ncn2[C@@H]1O[C@@H]2COP(=O)(O)O[C@H]2[C@H]1OC(=O)CCC [diBcAMP, dibutyryl cyclicAMP]
RG cells
  cells with intracellular astrocyte-specific GFA protein: 80%
  cells with surface oligodendrocyte-specific galactocerebroside (GC): less than 10%

## FLVKAHEQFH [Peptide #3, reference compound]
RG progenitor cells; peptide 10^−6 M (1 uM)
  Maturation activity, % conversion: <1%
RG progenitor cells; peptide 10^−7 M (100 nM)
  Maturation activity, % conversion: <1%

## ^13HHEQKLVFFAE^22 (HHQKLVFFAE) [Peptide #2]
RG progenitor cells; peptide 10^−6 M (1 uM)
  Maturation activity, % conversion: 41%
RG progenitor cells; peptide 10^−7 M (100 nM)
  Maturation activity, % conversion: 27%
RG progenitor cells; peptide 10^−7 M (100 nM), listed as HHQKLVFFAE
  Maturation activity, % conversion: 27%

## QVQNNKP [H. influenzae type b-derived MRHAS septapeptide]
THP-1 cells; Ca+2 mobilization response
  relative fluorescence intensity (RFI): 2.0
THP-1 cells
  DESENSITIZATION: blocks activation by the Listeria-derived MRHAS; also recorded: positive for QQTAPKA
  Ca^+2 flux: mild Ca^+2 agonists; also recorded: weakly positive

## QQTAPKA [L. monocytogenes-derived MRHAS septapeptide]
THP-1 cells
  DESENSITIZATION: lack of subsequent desensitization to MCP 1; also recorded: negative for MCP-1
  Ca^+2 flux: positive; also recorded: mild Ca^+2 agonists
